Measurements reported in patent US20170356895A1, “TOXICANT ASSAYS FOR CONSUMABLE PRODUCTS” (priority 2016, published 2017).

Test system: zebrafish (Danio rerio) AB strain embryos
Assay: Acute toxicity testing of extracts using zebrafish embryos (mortality rate after 48 hr exposure)
Type: in vivo
Conditions: 3.7 mg/L
Method: Extracts prepared as described in Example 1 were tested for acute toxicity using zebrafish (Danio rerio) AB strain embryos. Chicken breast extracts were diluted into zebrafish embryo culture medium at 0.25, 0.50, 1.00, 2.00 and 4.00 μl/ml. Zebrafish AB strain embryos of 4-128 cell stages were exposed to extract dilutions in a 96-well plate at 1 embryo per well. Each concentration was tested with 20 embryos. Zebrafish embryo culture medium and 3.7 mg/L dichloroaniline were included as negative and positive controls, respectively. After 48 hr exposure at 26° C., zebrafish embryos were observed under a stereomicroscope and fish embryos that were coagulated, tail not detached, and having no heart beat were marked as dead. Mortality rate for each concentration was calculated as the acute toxicity endpoint. The mortality rate for the negative control was 0% and for the positive control was 65%.
The acute toxicity of milk powder extracts prepared as described in Example 4 were tested for acute toxicity using zebrafish (Danio rerio) AB strain embryos. Milk powder extracts were diluted into zebrafish embryo culture medium at 0.33, 0.50, 0.76, 1.74 and 4.00 μl/ml. Zebrafish AB strain embryos of 4-128 cell stages were exposed to extract dilutions in a 96-well plate with 1 embryo per well. […] Mortality rate of each concentration was calculated as the acute toxicity endpoint. […]

Nc1ccc(Cl)c(Cl)c1 [3,4-dichloroaniline]
Mortality rate for positive control (48-hr exposure at 26° C., Example 5 (milk powder test)): 60% | Mortality rate for the positive control (48 hr exposure at 26° C., Example 2 (chicken breast test)): 65%
